What is called IC50 is the midpoint of a concentration-inhibition curve.

This assay relates to RAW264.7. Nature of the assay: Antiinflammatory activity against mouse RAW264.7 cells assessed as inhibition of HMGB1-induced NO production pretreated with compounds for 15 mins followed by HMGB1 stimulation measured after 24 hrs by Griess reagent based assay. Format: functional, cell-based. (In general: Griess reagent forms a coloured azo dye with nitrite.)

Each structure is given as a SMILES string.

As to `CC1(C)C[C@H]2C3=CC[C@@H]4[C@@](C)(CCC(=O)O)[C@H]([C@](C)(O)CO)CC[C@@]4(C)[C@]3(C)C[C@@H](O)[C@@]2(CO)[C@@H](O)[C@@H]1O`, the IC50 is above 100 µM.
With `C=C(C)[C@@H]1CC[C@]2(C(=O)O)CC[C@]3(C)[C@H](CC[C@@H]4[C@@]5(C)CC[C@H](O)C(C)(C)[C@@H]5CC[C@]43C)[C@@H]12` [BETULINIC ACID] the figure was above 100 µM.
With `COC(=O)CC[C@@]1(C)[C@H]([C@](C)(O)CO)CC[C@]2(C)[C@@H]1CC=C1[C@@H]3C[C@@](C)(CO)C[C@@H](O)[C@]3(C)CC[C@]12C` the figure was above 100 µM; with `CC1(C)[C@@H](OC(=O)CCC(=O)O)CC[C@]2(C)[C@H]3C(=O)C=C4[C@@H]5C[C@@](C)(C(=O)O)CC[C@]5(C)CC[C@@]4(C)[C@]3(C)CC[C@@H]12` [CARBENOXOLONE], 11.4 µM.
Next, `C[C@]1(CO)C[C@H]2C3=CC[C@@H]4[C@@](C)(CCC(=O)O)[C@H]([C@](C)(O)CO)CC[C@@]4(C)[C@]3(C)CC[C@@]2(C)[C@H](O)[C@@H]1O`: 36 µM; `CC1(C)C[C@H]2C3=CC[C@@H]4[C@@]5(C)CC[C@H](O)[C@](C)(CO)[C@@H]5CC[C@@]4(C)[C@]3(C)CC[C@@]2(C)[C@H](O)[C@@H]1O` [SOYASAPOGENOL A]: above 100 µM.
Turning to `C=C(CO)[C@@H]1CC[C@]2(C(=O)O)CC[C@]3(C)[C@H](CC[C@@H]4[C@@](C)(CCC(=O)O)[C@H](C(C)(C)O)CC[C@]43C)[C@@H]12`, the IC50 is above 100 µM.
With `CC1(C)C[C@@H](O)[C@]2(C)CC[C@]3(C)C(=CC[C@@H]4[C@@](C)(CCC(=O)O)[C@H]([C@](C)(O)CO)CC[C@]43C)[C@@H]2C1` the figure was above 100 µM; with `C=C(CO)[C@@H]1CC[C@]2(C(=O)O)CC[C@]3(C)[C@H](CC[C@@H]4[C@@](C)(CCC(=O)OC)[C@H](C(C)(C)O)CC[C@]43C)[C@@H]12`, above 100 µM; with `CC1(C)C[C@@H](O)[C@]2(C)CC[C@]3(C)C(=CC[C@@H]4[C@@]5(C)CC[C@H](O)[C@](C)(CO)[C@@H]5CC[C@]43C)[C@@H]2C1` [SOYASAPOGENOL B], above 100 µM.
With `C=C(C)[C@@H]1CC[C@]2(C(=O)O)CC[C@]3(C)[C@H](CC[C@@H]4[C@@](C)(CCC(=O)OC)[C@H](C(C)(C)O)CC[C@]43C)[C@@H]12` the figure was above 100 µM; with `CC(O)(CO)[C@@H]1CC[C@]2(C)[C@H](CC=C3[C@@H]4C[C@@](C)(CO)C[C@@H](O)[C@]4(C)CC[C@]32C)[C@@]1(C)CCC(=O)O` (some centres not stated), above 100 µM.
With `CC1(C)C[C@H]2C3=CC[C@@H]4[C@@](C)(CCC(=O)O)[C@H]([C@](C)(O)CO)CC[C@@]4(C)[C@]3(C)CC[C@@]2(C)[C@H](O)[C@@H]1O` the figure was above 100 µM; with `CC1(C)C[C@H]2C3=CC[C@@H]4[C@@](C)(CCC(=O)O)[C@H]([C@](C)(O)CO)CC[C@@]4(C)[C@]3(C)CC[C@@]2(C)[C@H](O)[C@H]1O`, 15.9 µM.
Regarding `C[C@@]1(CO)C[C@H]2C3=CC[C@@H]4[C@@](C)(CCC(=O)O)[C@H]([C@](C)(O)CO)CC[C@@]4(C)[C@]3(C)CC[C@@]2(C)[C@H](O)[C@@H]1O`, the IC50 is above 100 µM.
`C[C@@]1(CO)C[C@@H](O)[C@]2(C)CC[C@]3(C)C(=CC[C@@H]4[C@@](C)(CCC(=O)O)[C@H]([C@](C)(O)CO)CC[C@]43C)[C@@H]2C1`: the IC50 was above 100 µM.
As for `C=C(C)[C@@H]1CC[C@]2(C(=O)O)CC[C@]3(C)[C@H](CC[C@@H]4[C@@](C)(CCC(=O)O)[C@H](C(C)(C)O)CC[C@]43C)[C@@H]12`, the IC50 was above 100 µM.

These data come from ChEMBL document CHEMBL5053544, “Microbial transformation of pentacyclic triterpenes for anti-inflammatory agents on the HMGB1 stimulated RAW 264.7 cells by Streptomyces olivaceus CICC 23628” (Bioorg Med Chem, 2021).
